Molecules are shown by their SMILES. Values after ≈ are worked out from the molar mass of the structure shown. Active and inactive are the calls of the source. No cut-off for these calls is given here.

The subject of one experiment is P388. Description: Cytotoxicity against mouse P388 cells. Format: functional.
Conditions: not given
Turning to `CC(=O)O[C@@H]1[C@H]2[C@@H](C)[C@@H](O)[C@@H](O)[C@H](OC(C)=O)[C@]2(C)[C@@H](OC(C)=O)[C@H](OC(C)=O)C/C(C)=C\[C@@H]2OC(=O)[C@]3(C)O[C@@]213`, the result was inactive.
Same read-out and setting: the value for `CC(=O)O[C@H]1C[C@@H]2O[C@]2(C)[C@@H]2[C@@H](OC(C)=O)[C@]34O[C@@]3(C)C(=O)O[C@H]4/C=C(/CO)[C@H](OC(C)=O)C[C@H](OC(C)=O)[C@@]12C` was “inactive”; that for `CC(=O)O[C@@H]1[C@H]2[C@@]3(C)O[C@H]3[C@@H](O)[C@H](OC(C)=O)[C@]2(C)[C@@H](OC(C)=O)[C@H](OC(C)=O)C/C(C)=C\[C@@H]2OC(=O)[C@]3(C)O[C@@]213` was “inactive”.
For `CC(=O)O[C@H]1C[C@@H](OC(C)=O)/C(C)=C\[C@@H]2OC(=O)[C@]3(C)O[C@]23[C@H](OC(C)=O)[C@H]2[C@@](C)(O)[C@H](OC(C)=O)C=C[C@]12C`, the result was inactive.
The same measure, in the same setting: the same measure for `CC(=O)O[C@@H]1[C@H]2C(C)=C[C@@H](O)[C@H](OC(C)=O)[C@]2(C)[C@@H](OC(C)=O)[C@H](OC(C)=O)C/C(C)=C\[C@@H]2OC(=O)[C@]3(C)O[C@@]213`: “inactive”; for `CCCC(=O)O[C@@H]1C/C(C)=C\[C@@H]2OC(=O)[C@]3(C)O[C@]23[C@H](OC(C)=O)[C@H]2[C@@]3(C)O[C@H]3[C@@H](O)[C@H](OC(C)=O)[C@]2(C)[C@H]1OC(C)=O`: “inactive”; for `CC(=O)OC/C1=C/[C@@H]2OC(=O)[C@]3(C)O[C@]23[C@H](OC(C)=O)[C@H]2[C@@]3(C)O[C@H]3C[C@H](OC(C)=O)[C@]2(C)[C@@H](OC(C)=O)C[C@H]1OC(C)=O`: “inactive”.
On the same count and under the same terms, the same measure for `CC(=O)O[C@@H]1[C@@H]2O[C@]2(C)[C@@H]2[C@@H](OC(C)=O)[C@]34O[C@@]3(C)C(=O)O[C@H]4/C=C(/C)C[C@@H](OC(C)=O)[C@H](OC(C)=O)[C@@]2(C)[C@H]1OC(C)=O`: “inactive”.

Still in this experiment, the particulars now being: read-out: ED50 (the source's name).
Turning to `CCCC(=O)O[C@@H]1C/C(C)=C\[C@@H]2OC(=O)[C@]3(C)O[C@]23[C@H](OC(C)=O)[C@H]2C(C)=C[C@@H](O)[C@H](OC(C)=O)[C@]2(C)[C@H]1OC(C)=O` [STECHOLIDE I], the EC50 worked out at 23 µg/mL (≈ 38.8 µM).
